What all share (assay type): cell-based
For experiment [1], the system named is IL-1β cytokine output from THP-1s. The experiment in a line: THP-1 AlphaLISA IL-1β cytokine assay (differentiated THP-1 cells, LPS then nigericin). Particulars: 30 min pre-incubation, LPS 24 hr, nigericin 1 hour. How it is done: (§1) Measuring Inhibitory Effects on IL-1β and IL-6 Cytokine Output from THP-1s
(§2) The cytokine inhibition profiles of compounds of formula (I) were determined in a differentiated THP-1 cell assay. All assays were performed in RPMI-1640 growth medium (Gibco), supplemented with 10% fetal bovine serum (FBS; Gibco), 1% penicillin-streptomycin and 1% sodium pyruvate unless specified otherwise. The IL-1β and IL-6 cytokine inhibition assays were each run in a background of differentiated THP-1 cells as described below. All reagents described were from Sigma-Aldrich unless specified otherwise. Compounds were prepared as 10 mM DMSO stocks.
(§3) THP-1 cells were expanded as a suspension up to 80% confluence in appropriate growth medium. Cells were harvested, suspended, and treated with an appropriate concentration of phorbol 12-myristate 13-acetate (PMA) over a 72 hr period (37° C./5% CO2).
(§4) Following 72 hrs of THP-1 cell incubation, cellular medium was removed and replaced with fresh growth media containing 1% of FBS. Working concentrations of compounds were prepared separately in 10% FBS treated growth medium and pre-incubated with the cells for 30 minutes (37° C./5% CO2). Following the 30 minute compound pre-incubation, THP-1s were treated with an appropriate concentration of LPS and the THP-1s were subsequently incubated for a 24 hr period (37° C./5% CO2). An appropriate final concentration of Nigericin was then dispensed into the THP-1 plates and incubated for 1 hour (37° C./5% CO2) before THP-1 supernatants were harvested and collected in separate polypropylene 96-well holding plates.
(§5) Reagents from each of the IL-1β and IL-6 commercial kits (Perkin Elmer) were prepared and run according to the manufacturer's instructions. Subsequently, fluorescence signal detection in a microplate reader was measured (EnVision® Multilabel Reader, Perkin Elmer).
(§6) Percentage inhibition was calculated per cytokine by normalizing the sample data to the high and low controls used within each plate (+/−LPS respectively).
(Bead proximity is the source of the signal in Alpha formats.)

Experiment [2] relates to NRF2 (nuclear factor erythroid 2-related factor 2). In words: NRF2 activation assay (DiscoverX PathHunter NRF2 translocation kit, U2OS cells). Particulars: for Emax / EC50: Homo sapiens; for Emax: U2OS; for EC50: U2OS PathHunter cells, 6 hours.
The subject of experiment [3] is IL-6 cytokine output from THP-1s. In words: THP-1 AlphaLISA IL-6 cytokine assay (differentiated THP-1 cells, LPS then nigericin). Particulars: 30 min pre-incubation, LPS 24 hr, nigericin 1 hour. On the procedure:
as §1, §2, §3, §4, §5, §6

The mark [4] stands for this setting: +GSH, normalised to dimethyl fumarate high control.
[5] abbreviates: −GSH, normalised to dimethyl fumarate high control.
The mark [6] stands for this setting: +GSH (30 minute compound/GSH pre-incubation).

The term IC50 denotes the concentration at which inhibition is half-maximal. Higher therefore signals a need for much substance. A word on the Emax: it is the maximal effect, on the per cent scale that the assay sets. The EC50 is the concentration at which the effect is half-maximal. With `C=C(Cc1ccccc1Cl)C(=O)O` [2-(2-chlorobenzyl)acrylic acid, reference compound], the IC50 in experiment [1] (Homo sapiens) was over 100 µM. Further, the Emax in experiment [2] (setting [4]) came out at 9%; in experiment [2] (setting [5]), 2%. The EC50 in experiment [2] (setting [6]) and in experiment [2] (−GSH) was over 100 µM throughout.

Regarding `C=C(CC(=O)OCCCCCCCC)C(=O)O` [4-octyl itaconate, reference compound], the IC50 was 21.1 µM in experiment [3] and 39.8 µM in experiment [1]. In addition, in experiment [2] (setting [4]), the “NRF2 activation Emax, +GSH” value is recorded as 148%. For the same compound, in experiment [2] (setting [5]), the “NRF2 activation Emax, −GSH” value is reported as 165%.

Consider `C=C(Cc1nc(C2(c3ccc(SC(F)(F)F)cc3)CC2)no1)C(=O)Nc1ncc(C)s1` [Example 1, N-(5-methylthiazol-2-yl)-2-((3-(1-(4-((trifluoromethyl)thio)phenyl)cyclopropyl)-1,2,4-oxadiazol-5-yl)methyl)acrylamide], for which the IC50 in experiment [3] (Homo sapiens) was found to be 0.9 µM; in experiment [1] (Homo sapiens), 1 µM.

As to `C=C(Cc1nc(C2(c3ccc(SC(F)(F)F)cc3)CC2)no1)C(=O)Nc1cnccn1` [Example 2, N-(pyrazin-2-yl)-2-((3-(1-(4-((trifluoromethyl)thio)phenyl)cyclopropyl)-1,2,4-oxadiazol-5-yl)methyl)acrylamide], the IC50 came to 0.6 µM in experiment [3] (Homo sapiens) and 0.4 µM in experiment [1] (Homo sapiens). Moreover, the Emax was 79% in experiment [2] (setting [4]) and 117% in experiment [2] (setting [5]). Also, the EC50 in experiment [2] (setting [6]) was 5.2 µM; in experiment [2] (−GSH), 0.9 µM.

With `C=C(Cc1nc(Cc2ccc(CCCC)cc2)no1)C(=O)Nc1ccccn1` [Example 3, 2-((3-(4-butylbenzyl)-1,2,4-oxadiazol-5-yl)methyl)-N-(pyridin-2-yl)acrylamide], half-maximal inhibition in experiment [1] (Homo sapiens) (IC50) was put at 4.5 µM.

Compound `C=C(Cc1nc(Cc2ccc(CCCC)cc2)no1)C(=O)Nc1cnccn1` [Example 4, 2-((3-(4-butylbenzyl)-1,2,4-oxadiazol-5-yl)methyl)-N-(pyrazin-2-yl)acrylamide] showed an IC50 in experiment [1] (Homo sapiens) of 1.1 µM. Compared with the last compound, the IC50 is about 4.1-fold lower.

In experiment [1] (Homo sapiens), `C=C(Cc1nc(Cc2ccc(CCCC)cc2)no1)C(=O)Nc1ncc(C)s1` [Example 5, 2-((3-(4-butylbenzyl)-1,2,4-oxadiazol-5-yl)methyl)-N-(5-methylthiazol-2-yl)acrylamide] had a concentration for half-maximal inhibition (IC50) of 1.9 µM.

With `C=C(CC(=O)OC(C)(C)CCCCCC)C(=O)Nc1cnccn1` [Example 6, 2-methyloctan-2-yl 3-(pyrazin-2-ylcarbamoyl)but-3-enoate], the IC50 in experiment [3] (Homo sapiens) was found to be 2.1 µM; in experiment [1] (Homo sapiens), 3.8 µM.

For the compound `C=C(CC(=O)OC1(c2ccc(C(F)(F)F)cc2)CCC1)C(=O)NC` [Example 7, 1-(4-(trifluoromethyl)phenyl)cyclobutyl 3-(methylcarbamoyl)but-3-enoate], the figures for the concentration for half-maximal inhibition (IC50) in experiment [3] (Homo sapiens) and in experiment [1] (Homo sapiens) were 12.1 µM and 20.5 µM, respectively. Further, the Emax came out at 27% in experiment [2] (setting [4]) and 119% in experiment [2] (setting [5]). For the same compound, the EC50 was over 100 µM in experiment [2] (setting [6]) and 12.6 µM in experiment [2] (−GSH).

Consider `C=C(CC(=O)OC1(c2ccc(C(F)(F)F)cc2)CCC1)C(N)=O` [Example 8, 1-(4-(trifluoromethyl)phenyl)cyclobutyl 3-carbamoylbut-3-enoate], for which the IC50 in experiment [3] (Homo sapiens) is 13.9 µM; in experiment [1] (Homo sapiens), 34.3 µM. Also, the Emax was determined as 7% in experiment [2] (setting [4]) and 21% in experiment [2] (setting [5]). For the same compound, the concentration for a half-maximal effect (EC50) in experiment [2] (setting [6]) and in experiment [2] (−GSH) was over 100 µM in each case.

For `C=C(CC(=O)O[C@@H](C)c1ccc(C(F)(F)F)cc1)C(N)=O` [Example 9, (S)-1-(4-(trifluoromethyl)phenyl)ethyl 3-carbamoylbut-3-enoate], the IC50 in experiment [3] (Homo sapiens) is 4.5 µM; in experiment [1] (Homo sapiens), 10 µM. For the same compound, the values for the Emax in experiment [2] (setting [4]) and in experiment [2] (setting [5]) were 26% and 110%, respectively. Also, the EC50 is over 100 µM in experiment [2] (setting [6]) and 13.7 µM in experiment [2] (−GSH).

Take `C=C(CC(=O)O[C@@H](C)c1ccc(C(F)(F)F)cc1)C(=O)NC` [Example 10, (S)-1-(4-(trifluoromethyl)phenyl)ethyl 3-(methylcarbamoyl)but-3-enoate]: the IC50 amounted to 3.5 µM in experiment [3] (Homo sapiens) and 10.5 µM in experiment [1] (Homo sapiens).

With `C=C(CC(=O)O[C@H](C)c1ccc(C(F)(F)F)cc1)C(=O)NC` [Example 11, (R)-1-(4-(trifluoromethyl)phenyl)ethyl 3-(methylcarbamoyl)but-3-enoate], the IC50 in experiment [3] (Homo sapiens) was 1.9 µM; in experiment [1] (Homo sapiens), 3.3 µM.

Take `C=C(CC(=O)O[C@H](C)c1ccc(C(F)(F)F)cc1)C(N)=O` [Example 12, (R)-1-(4-(trifluoromethyl)phenyl)ethyl 3-carbamoylbut-3-enoate]: the IC50 in experiment [3] (Homo sapiens) is 14.4 µM; in experiment [1] (Homo sapiens), 20 µM.

Consider `C=C(CC(=O)OC1(c2ccc(C(F)(F)F)cc2)COC1)C(=O)NC` [Example 13, 3-(4-(trifluoromethyl)phenyl)oxetan-3-yl 3-(methylcarbamoyl)but-3-enoate], for which the results for the IC50 in experiment [3] (Homo sapiens) and in experiment [1] (Homo sapiens) were 2.6 µM and 17.5 µM, respectively.

In the case of `C=C(CC(=O)OC1(c2ccc(C(F)(F)F)cc2)COC1)C(N)=O` [Example 14, 3-(4-(trifluoromethyl)phenyl)oxetan-3-yl 3-carbamoylbut-3-enoate], the 50% inhibitory concentration (IC50) stood at 4.4 µM in experiment [3] (Homo sapiens) and 6.5 µM in experiment [1] (Homo sapiens).

In the case of `C=C(CC(=O)OC1(c2ccc(C(F)(F)F)cn2)COC1)C(=O)NC` [Example 15, 3-(5-(trifluoromethyl)pyridin-2-yl)oxetan-3-yl 3-(methylcarbamoyl)but-3-enoate], the IC50 in experiment [3] (Homo sapiens) is 10.9 µM; in experiment [1] (Homo sapiens), 13.1 µM.

`C=C(CC(=O)OC1(c2ccc(C(F)(F)F)cn2)COC1)C(N)=O` [Example 16, 3-(5-(trifluoromethyl)pyridin-2-yl)oxetan-3-yl 3-carbamoylbut-3-enoate]: the IC50 in experiment [3] (Homo sapiens) stood at 4.6 µM; in experiment [1] (Homo sapiens) it was 8.6 µM.

Consider `C=C(CC(=O)OC1(c2ccc(C(F)(F)F)cn2)CCC1)C(=O)NC` [Example 17, 1-(5-(trifluoromethyl)pyridin-2-yl)cyclobutyl 3-(methylcarbamoyl)but-3-enoate], for which the values for the IC50 in experiment [3] (Homo sapiens) and in experiment [1] (Homo sapiens) were 4.8 µM and 14.4 µM, respectively.

As to `C=C(CC(=O)OC1(c2ccc(C(F)(F)F)cn2)CCC1)C(N)=O` [Example 18, 1-(5-(trifluoromethyl)pyridin-2-yl)cyclobutyl 3-carbamoylbut-3-enoate], the figures for the IC50 in experiment [3] (Homo sapiens) and in experiment [1] (Homo sapiens) were 14.4 µM and 9.3 µM, respectively.

Consider `C=C(CC(=O)OC1(c2cc(Cl)cc(Cl)c2)CCC1)C(=O)NC` [Example 19, 1-(3,5-dichlorophenyl)cyclobutyl 3-(methylcarbamoyl)but-3-enoate], for which the IC50 in experiment [3] (Homo sapiens) was determined as 3.3 µM; in experiment [1] (Homo sapiens), 17.5 µM.

As to `C=C(CC(=O)OC1(c2ccc(C(F)(F)F)c(F)c2)CCC1)C(N)=O` [Example 21, 1-(3-fluoro-4-(trifluoromethyl)phenyl)cyclobutyl 3-carbamoylbut-3-enoate], the IC50 in experiment [3] (Homo sapiens) turned out to be 6.9 µM; in experiment [1] (Homo sapiens), 15.4 µM.

Take `C=C(CC(=O)OC1(c2ccc(C(F)(F)F)cc2)CCC1)C(=O)NC1CCN(C)CC1` [Example 23, 1-(4-(trifluoromethyl)phenyl)cyclobutyl 3-((1-methylpiperidin-4-yl)carbamoyl)but-3-enoate]: the IC50 was 24.1 µM in experiment [3] (Homo sapiens) and over 31.6 µM in experiment [1] (Homo sapiens).

Regarding `C=C(CC(=O)OC1(c2ccc(C(F)(F)F)cc2)CCC1)C(=O)NCCN1CCOCC1` [Example 24, 1-(4-(trifluoromethyl)phenyl)cyclobutyl 3-((2-morpholinoethyl)carbamoyl)but-3-enoate], the IC50 was 6.8 µM in experiment [3] (Homo sapiens) and 8.6 µM in experiment [1] (Homo sapiens).

Regarding `C=C(CC(=O)OC1(c2ccc(C(F)(F)F)cc2)CCC1)C(=O)NC1CS(=O)(=O)C1` [Example 25, 1-(4-(trifluoromethyl)phenyl)cyclobutyl 3-((1,1-dioxidothietan-3-yl)carbamoyl)but-3-enoate], the IC50 in experiment [3] (Homo sapiens) came to 9.5 µM; in experiment [1] (Homo sapiens), 19.9 µM.

Turning to `C=C(CC(=O)OC1(c2ccc(C(F)(F)F)cc2)CCC1)C(=O)NCCS(C)(=O)=O` [Example 26, 1-(4-(trifluoromethyl)phenyl)cyclobutyl 3-((2-(methylsulfonyl)ethyl)carbamoyl)but-3-enoate], the IC50 in experiment [3] (Homo sapiens) was determined as 11.3 µM; in experiment [1] (Homo sapiens) it was 18 µM.

Consider `C=C(CC(=O)OC1(c2ccc(C(F)(F)F)cc2)CCC1)C(=O)NCC(=O)O` [Example 29, (2-methylene-4-oxo-4-(1-(4-(trifluoromethyl)phenyl)cyclobutoxy)butanoyl) glycine], for which the half-maximal inhibitory concentration (IC50) in experiment [3] (Homo sapiens) was over 31.6 µM; in experiment [1] (Homo sapiens), over 100 µM.

Source of the values: patent US20240335451A1, “ACRYLAMIDE DERIVATIVES USEFUL AS ANTI-INFLAMMATORY AGENTS” (Sitryx Therapeutics Limited, priority 2021, published 2024).
